Experiment [1] relates to FOP herbicide resistant calli (FP-1 to FP-19). As to the kind of experiment: Resistant calli tested on higher herbicide concentrations in culture medium. It is filed as cell-based, Sorghum bicolor. As to the method:
The herbicide active ingredient molecule of ACC herbicide Assure II (Quizalofop-p-ethyl) was used for screening and selection process. For identifying the optimum concentration for screening, a kill curve experiment with concentrations ranging from 0.05 to 1.0 μM of a.i. molecules were tested. Three week old calli were cut into small pieces of 4-5 mm dia and 25 pieces were tested in three replications for each concentration. Concentrations used were: 0.05, 0.1, 0.2, 0.3, 0.4, 0.5 and 1 μM Quizalofop p-ethyl. As 50% of calli were killed at 0.2 uM concentration, the following selection criteria was followed for entire screening process. Selection process was started with 0.05 um and doubled the concentration for every 3 weeks and the calli surviving on 1.0 uM was considered as resistant calli.
For the chemical mutagenesis, two chemical mutagens Ethyl methanesulfonate (EMS) (0.25 and 0.5%) and Sodium azide (0.5 and 1.0 uM) were used. These mutagens at specified concentration were directly added into the culture media. The calli pieces were first cultured on the media containing the mutagens for 6 and 12 hrs and then transferred to the above mentioned selection procedure. A total of 16 experiments were conducted with varying amount of calli pieces. After 21 to 24 weeks of selection, the surviving calli were considered as herbicide resistant calli. […]

The subject of experiment [2] is sorghum (Inbred BTX430) calli. As to the kind of experiment: Kill curve experiment on sorghum calli. It is filed as cell-based, Sorghum bicolor. The conditions noted are these: 0.2 uM concentration; three week old BTX430 calli. As to the method: Callus production from the isolation of immature embryos (IEs) was accomplished by removing immature seeds from greenhouse grown sorghum (Inbred BTX430) panicles approximately 14 days after anthesis and surface sterilized in ethanol followed by a bleach solution and then washed in sterilized water. Immature embryos were isolated from seeds and transferred to medium with 20 IEs per plate. Cultures were grown for two weeks at (28° C.). All explants which produced somatic embryogenic calli were transferred to growth medium and cultured for an additional 4-6 days at 28° C. Explants were transferred to fresh media every three weeks until the entire callus turned into compact and friable green callus. Three weeks old freshly subcultured calli were used for the experiment
The herbicide active ingredient molecule of ACC herbicide Assure II (Quizalofop-p-ethyl) was used for screening and selection process. For identifying the optimum concentration for screening, a kill curve experiment with concentrations ranging from 0.05 to 1.0 μM of a.i. molecules were tested. Three week old calli were cut into small pieces of 4-5 mm dia and 25 pieces were tested in three replications for each concentration. Concentrations used were: 0.05, 0.1, 0.2, 0.3, 0.4, 0.5 and 1 μM Quizalofop p-ethyl. […]

Structures are written as SMILES.

This note sets out measurements from patent US20180346920A1, “Mutations Conferring Acetyl-Coa Carboxylase (ACC) Inhibiting Herbicide Tolerance in Sorghum” (Chromatin, Inc., priority 2017, published 2018).

With `CCOC(=O)[C@@H](C)Oc1ccc(Oc2cnc3cc(Cl)ccc3n2)cc1` [Quizalofop-p-ethyl], the “survival of FOP resistant calli” value in experiment [1] (100 μM, FP-7, FP-8, FP-9, FP-10, FP-13, FP-15) is “surviving”. Besides, the “growth of FOP herbicide resistant calli on tissue culture medium” value in experiment [1] (FP-13, 1, 1.5, 2, 5, 10 μM) was “growing”. The compound further came in with a calli killed in experiment [2] of 50%.
